In publication PMC12643509, “High-throughput screens identify genotype-specific therapeutics for channelopathies” (JCI Insight, 2025):
Several values for one entry are separate records, joined by “and”; a condition that tells them apart may be missing. Equal values may be shown once.

How the values were obtained:
[1] = biological target: wild-type KV11.1 (Homo sapiens, UniProt Q12809)
[2] = biological target: WT Kv11.1 (Homo sapiens, UniProt Q12809); settings: 24 hour and washout, individual wells
Chain of WT Kv11.1 (Q12809 whole entry): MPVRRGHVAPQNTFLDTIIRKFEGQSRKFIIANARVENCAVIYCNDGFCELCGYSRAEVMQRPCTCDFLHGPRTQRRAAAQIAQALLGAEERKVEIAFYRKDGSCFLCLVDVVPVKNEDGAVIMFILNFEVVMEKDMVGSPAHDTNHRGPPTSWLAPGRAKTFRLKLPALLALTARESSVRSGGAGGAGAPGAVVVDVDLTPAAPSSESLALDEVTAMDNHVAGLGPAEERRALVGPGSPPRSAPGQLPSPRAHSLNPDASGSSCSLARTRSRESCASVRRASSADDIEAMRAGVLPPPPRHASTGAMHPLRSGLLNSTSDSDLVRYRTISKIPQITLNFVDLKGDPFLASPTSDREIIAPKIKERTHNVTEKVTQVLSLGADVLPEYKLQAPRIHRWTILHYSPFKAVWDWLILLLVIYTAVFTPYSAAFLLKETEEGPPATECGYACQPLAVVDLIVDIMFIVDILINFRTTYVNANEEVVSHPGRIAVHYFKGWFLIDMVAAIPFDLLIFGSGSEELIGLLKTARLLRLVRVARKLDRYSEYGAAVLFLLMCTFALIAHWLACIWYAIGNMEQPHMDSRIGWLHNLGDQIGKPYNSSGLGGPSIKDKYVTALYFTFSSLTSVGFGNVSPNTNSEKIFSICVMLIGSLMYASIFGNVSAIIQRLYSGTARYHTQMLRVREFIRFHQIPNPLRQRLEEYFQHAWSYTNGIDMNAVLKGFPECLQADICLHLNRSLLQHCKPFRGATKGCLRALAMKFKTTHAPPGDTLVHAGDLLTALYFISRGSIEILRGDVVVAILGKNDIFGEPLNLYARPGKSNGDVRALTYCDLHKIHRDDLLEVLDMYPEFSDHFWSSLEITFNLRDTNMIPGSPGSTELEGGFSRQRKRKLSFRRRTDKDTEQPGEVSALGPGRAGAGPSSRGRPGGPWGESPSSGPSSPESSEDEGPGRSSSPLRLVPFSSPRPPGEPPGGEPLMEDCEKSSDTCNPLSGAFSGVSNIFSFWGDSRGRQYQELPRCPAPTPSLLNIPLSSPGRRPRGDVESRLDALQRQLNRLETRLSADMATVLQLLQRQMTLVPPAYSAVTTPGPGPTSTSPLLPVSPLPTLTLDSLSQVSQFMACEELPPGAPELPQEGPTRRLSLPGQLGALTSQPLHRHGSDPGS
Description: plot of hits tested for 24-h our WT toxicity. Each point repres ents the med ia n robust Z score
after 24-hour treatm ent and washout in cells ex pressing WT.
robust Z scores be low bas eli ne function).
second ary screens w ere perform ed i n triplicate us ing 1 0 µ M drug treatme nt to assess: 1)
acute channel block, measur ed after a 15-minute inc ubati on with the drug present duri ng
recordi ngs; and 2) t oxicit y in W T channels, assesse d af t er a 24-hour drug ex posure fol low ed
(C) Tl+-measurements after 24-hour treatment and washout in HEK cells

Chain of wild-type KV11.1 (Q12809 whole entry): as above

SMILES | inhibition of WT channels [1] | Changes in WT function (thallium flux) [2]
OC[C@H]1O[C@H](O[C@]2(CCl)O[C@H](CCl)[C@@H](O)[C@@H]2O)[C@H](O)[C@@H](O)[C@H]1Cl [Sucralose, sucralose] | did not inhibit WT channels | 0.1161 and 0.1317 and 0.1214
CCc1c(C)[nH]c2c1C(=O)C(CN1CCOCC1)CC2 (stereo not drawn) [Moban, moban] | did not inhibit WT channels | 
